Measured values reported in ChEMBL document CHEMBL5537113, “Discovery of 1,2-diaryl-3-oxopyrazolidin-4-carboxamides as a new class of MurA enzyme inhibitors and characterization of their antibacterial activity” (Eur J Med Chem, 2023).

Key:
[1] = test system: UDP-N-acetylglucosamine 1-carboxyvinyltransferase (Escherichia coli K-12), P0A749 [C115D]; experiment: Inhibition of Escherichia coli MurA C115D mutant using UNAG as substrate pre incubated for 15 mins followed by substrate addition and measured after 15 mins by microplate reader analysis; details: time 30.0 min
[2] = target: UDP-N-acetylglucosamine 1-carboxyvinyltransferase (Escherichia coli K-12, UniProt P0A749, C115D); experiment: Inhibition of Escherichia coli MurA C115D mutant at 50 uM using UNAG as substrate pre incubated for 15 mins followed by substrate addition and measured after 15 mins by microplate reader analysis relative to control
[3] = Drug uptake in Escherichia coli harboring tolC deletion mutant at 10 uM incubated for 30 mins by LC analysis; assay type: ADME; details: 0.5 h
[4] = Drug uptake in Escherichia coli harboring tolC deletion mutant assessed per 1.6x10^9 cells at 10 uM incubated for 30 mins by LC analysis; assay type: ADME; details: 0.5 h
Staphylococcus aureus = experiment: Antibacterial activity against methicillin sensitive Staphylococcus aureus NRS107 assessed as reduction in microbial growth by CLSI based broth microdilution method; assay type: functional
Clostridioides difficile [5] = experiment: Antibacterial activity against Clostridioides difficile NR-32904 assessed as reduction in microbial growth incubated for 48 hrs by broth microdilution method; assay type: functional
Clostridioides difficile [6] = experiment: Antibacterial activity against Clostridioides difficile NR-13427 assessed as reduction in microbial growth incubated for 48 hrs by broth microdilution method; assay type: functional
Clostridioides difficile [7] = experiment: Antibacterial activity against Clostridioides difficile NR-13436 assessed as reduction in microbial growth incubated for 48 hrs by broth microdilution method; assay type: functional
Clostridioides difficile [8] = experiment: Antibacterial activity against Clostridioides difficile NR-49285 assessed as reduction in microbial growth incubated for 48 hrs by broth microdilution method; assay type: functional
Clostridioides difficile [9] = experiment: Antibacterial activity against Clostridioides difficile NR-49287 assessed as reduction in microbial growth incubated for 48 hrs by broth microdilution method; assay type: functional
Clostridioides difficile [10] = experiment: Antibacterial activity against Clostridioides difficile ATCC 43255 assessed as reduction in microbial growth incubated for 48 hrs by broth microdilution method; assay type: functional
Clostridioides difficile [11] = experiment: Antibacterial activity against Clostridioides difficile HM-88 assessed as reduction in microbial growth incubated for 48 hrs by broth microdilution method; assay type: functional
Clostridioides difficile [12] = experiment: Bactericidal activity against Clostridioides difficile NR-32904 assessed as reduction in microbial growth by broth microdilution method; assay type: functional
Clostridioides difficile [13] = experiment: Bactericidal activity against Clostridioides difficile ATCC 43255 assessed as reduction in microbial growth by broth microdilution method; assay type: functional
Bacteroides fragilis = experiment: Antibacterial activity against Bacteroides fragilis HM 709 assessed as reduction in microbial growth incubated for 48 hrs by broth microdilution method; assay type: functional
Caco-2 [14] = experiment: Cytotoxicity against human Caco-2 cells assessed as reduction in cell viability at 64 ug/ml after 24 hrs by MTS assay; assay type: toxicity, cell-based; details: caco-2, 24 h, dose 64 µg/ml
Clostridioides difficile [15] = experiment: Selectivity ratio of MBC for antibacterial activity against Clostridioides difficile NR-32895 to MIC for antibacterial activity against Clostridioides difficile NR-32895; assay type: functional
Clostridioides difficile [16] = experiment: Selectivity ratio of MBC for antibacterial activity against Clostridioides difficile NR-49284 to MIC for antibacterial activity against Clostridioides difficile NR-49284; assay type: functional
Clostridioides difficile [17] = experiment: Selectivity ratio of MBC for antibacterial activity against Clostridioides difficile ATCC BAA1870 to MIC for antibacterial activity against Clostridioides difficile ATCC BAA1870; assay type: functional
Caco-2 [18] = experiment: Cytotoxicity against human Caco-2 cells assessed as reduction in cell viability at > 128 ug/ml after 24 hrs by MTS assay; assay type: toxicity, cell-based; details: caco-2, 24 h, dose > 128 µg/ml

UDP-N-acetylglucosamine 1-carboxyvinyltransferase (Escherichia coli K-12), P0A749 [C115D], sequence (P0A749 whole entry C115D): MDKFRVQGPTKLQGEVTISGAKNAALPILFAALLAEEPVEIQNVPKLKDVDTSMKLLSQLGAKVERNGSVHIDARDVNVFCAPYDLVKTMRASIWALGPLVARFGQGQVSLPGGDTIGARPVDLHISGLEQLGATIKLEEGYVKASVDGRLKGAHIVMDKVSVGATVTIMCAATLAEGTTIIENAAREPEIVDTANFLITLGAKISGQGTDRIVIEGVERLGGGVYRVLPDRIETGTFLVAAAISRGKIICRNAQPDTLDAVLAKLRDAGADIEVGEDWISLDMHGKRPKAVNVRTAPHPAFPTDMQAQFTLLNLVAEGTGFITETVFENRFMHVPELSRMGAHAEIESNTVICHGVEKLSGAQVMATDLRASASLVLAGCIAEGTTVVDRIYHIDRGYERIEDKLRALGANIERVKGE
UDP-N-acetylglucosamine 1-carboxyvinyltransferase, sequence (P0A749 whole entry C115D): as above

Structure (SMILES) | inhibition [1] [%] | IC50 [2] [µM] | Drug uptake [3] [nM] | Drug uptake [4] [µM] | MIC (Staphylococcus aureus) [µg/mL] | MIC (Clostridioides difficile [5]) [µg/mL] | MIC (Clostridioides difficile [6]) [µg/mL] | MIC (Clostridioides difficile [7]) [µg/mL] | MIC (Clostridioides difficile [8]) [µg/mL] | MIC (Clostridioides difficile [9]) [µg/mL] | MIC (Clostridioides difficile [10]) [µg/mL] | MIC (Clostridioides difficile [11]) [µg/mL] | MBC (Clostridioides difficile [12]) [µg/mL] | MBC (Clostridioides difficile [13]) [µg/mL] | MIC (Bacteroides fragilis) [µg/mL] | Activity (Caco-2 [14]) | Ratio (Clostridioides difficile [15]) | Ratio (Clostridioides difficile [16]) | Ratio (Clostridioides difficile [17]) | Activity (Caco-2 [18])
O=C(Nc1ncc([N+](=O)[O-])s1)C1CN(c2cccc(Cl)c2)N(c2cccc(Cl)c2)C1=O (centres undefined) | 76 | 10.9 | 56 | 1.8 | 2 | 0.5 | 0.5 | 0.5 | 0.5 | 0.5 | 0.125 | 0.5 | 1 | 0.25 | 4 | Non-Toxic | 1 | 1 | 1 | 
O=C(Nc1ncc([N+](=O)[O-])s1)C1CN(c2ccc(Cl)cc2)N(c2ccc(Cl)cc2)C1=O (centres undefined) |  |  |  |  | 64 | 0.5 | 0.5 | 1 | 1 | 0.5 | 0.25 | 0.5 | 1 | 0.5 | 4 |  | 1 | 1 | 1 | Non-Toxic
